Read-outs that look alike come from different tables or passages of the source.
Tests used:
[1] = tested on: Hedgehog pathway activation (GLi-luciferase reporter) in Shh Light II reporter cells; assay: Hedgehog pathway activation on Shh Light II reporter cells measured by luciferase activity; type: cell-based
Summary of the method: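 Shh Light II reporter cells carrying a hedgehog-responsive GLi-luciferase reporter were stimulated either with 500 nM SAG, a direct Smoothened agonist, or with conditioned media containing human Sonic Hedgehog (hShh). Test compounds were evaluated for blocking this pathway activation, quantified by luciferase activity. Cell viability was monitored in parallel with the Celltiter-Blue® assay.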

[2] = tested on: Hedgehog pathway activation on 10T1/2/Smo#3 cells (C3H10T1/2 cells transfected with human Smoothened receptor); assay: Hedgehog pathway activation on 10T1/2/Smo#3 cells measured by ALP activity; type: cell-based
Summary of the method: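 C3H10T1/2 cells stably expressing human Smoothened were activated with hShh-conditioned medium (10-20%) or 500 nM SAG, with test compounds present. Pathway block read as inhibited ALP activity (4-methylumbelliferyl phosphate fluorescence); viability checked by CellTiter-Blue. IC50 values reported.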

[3] = Mus musculus, Shh Light II, SAG activation (500 nM SAG), read-out: Shh Light II luciferase activity (SAG activation)
[4] = Mus musculus, Shh Light II, hShh activation, read-out: Shh (IC50, inhibition of Hedgehog pathway activation)
[5] = Mus musculus, Shh Light II, hShh activation, read-out: Shh Light II luciferase activity (hShh activation)
[6] = Mus musculus, C3H 10T1/2, 10T1/2/Smo#3 cells, hShh activation, ALP activity, read-out: 10T1/2/Smo#3 ALP activity (hShh Activation)
[7] = Mus musculus, C3H 10T1/2, 10T1/2/Smo#3 cells, measured by ALP activity, read-out: ALP (IC50, inhibition of Hedgehog pathway activation)
[8] = hShh activation, read-out: Shh (IC50, inhibition of Hedgehog pathway activation)

SMILES	IC50 [1, 3]	IC50 [1, 4]	IC50 [1, 5]	IC50 [2, 6]	IC50 [2, 7]	IC50 [1, 8]	IC50 ([2]; 10T1/2/Smo#3 cells, measured by ALP activity, read-out: ALP (IC50, inhibition of Hedgehog pathway activation))
Fc1ccc(CN2CCN(c3ccc4nc(-c5ccccc5)c(Cl)n4n3)CC2)cc1 [Example 144, 3-chloro-6-(4-(4-fluorobenzyl)piperazin-1-yl)-2-phenylimidazo[1,2-b]pyridazine]	3000 to 30000 nM	> 10000 nM	3000 to 30000 nM	3000 to 30000 nM	3970 nM		
CCOC(=O)COc1ccc(C(F)(F)F)c(-c2ccc3nc(-c4ccc(C)c(NC(=O)C(C)(C)C)c4)cn3n2)c1 [Example 477, ethyl 2-(3-(2-(4-methyl-3-pivalamidophenyl)imidazo[1,2-b]pyridazin-6-yl)-4-(trifluoromethyl)phenoxy)acetate]		247 nM			521 nM		
CC(C)(C)C(=O)Nc1cc(-c2cn3nc(N4CCOCC4)ccc3n2)ccc1C(F)(F)F [Example 232, N-(5-(6-morpholinoimidazo[1,2-b]pyridazin-2-yl)-2-(trifluoromethyl)phenyl)pivalamide]		428 nM			414 nM		
CC1CCN(c2ccc3nc(-c4ccc(C(F)(F)F)c(NC(=O)C(C)(C)C)c4)cn3n2)CC1 [Example 233, N-(5-(6-(4-methylpiperidin-1-yl)imidazo[1,2-b]pyridazin-2-yl)-2-(trifluoromethyl)phenyl)pivalamide]		329 nM			339 nM		
Cc1ccc(-c2cn3nc(-c4cccc(C(=O)Nc5ccccc5N)c4)ccc3n2)cc1NC(=O)C(C)(C)C [compound 598]		59 nM			424 nM		
CNC1CCN(c2ccc3nc(-c4ccc(C)c(NC(=O)C(C)(C)C)c4)cn3n2)C1 (stereo not drawn) [Example 473, N-(2-methyl-5-(6-(3-(methylamino)pyrrolidin-1-yl)imidazo[1,2-b]pyridazin-2-yl)phenyl)pivalamide]						77 nM	93 nM
CC(C)CNc1ccc2nc(-c3ccc(C(F)(F)F)c(NC(=O)C(C)(C)C)c3)cn2n1 [Example 302, N-(5-(6-(isobutylamino)imidazo[1,2-b]pyridazin-2-yl)-2-(trifluoromethyl)phenyl)pivalamide]		522 nM			443 nM		
CC(C)(C)OC(=O)NC1CCN(c2ccc3nc(-c4ccc(C(F)(F)F)c(NC(=O)C(C)(C)C)c4)cn3n2)C1 (stereo not drawn) [Example 297, tert-butyl 1-(2-(3-pivalamido-4-(trifluoromethyl)phenyl)imidazo[1,2-b]pyridazin-6-yl)pyrrolidin-3-ylcarbamate]		452 nM			463 nM		
CC(C)(C)C(=O)Nc1cc(-c2cn3ncccc3n2)ccc1Cl [Example 113, N-(2-chloro-5-(imidazo[1,2-b]pyridazin-2-yl)phenyl)pivalamide]	3000 to 30000 nM	1000 nM	300 to 3000 nM	300 to 3000 nM	1560 nM		
CCOc1ccc2nc(-c3ccc(C(F)(F)F)c(-c4ccccn4)c3)cn2n1 [Example 218, 6-ethoxy-2-(3-(pyridin-2-yl)-4-(trifluoromethyl)phenyl)imidazo[1,2-b]pyridazine]	3000 to 30000 nM	1720 nM	300 to 3000 nM	300 to 3000 nM	2120 nM		
CCOc1nn2cc(-c3ccc(C(F)(F)F)c(NC(=O)C(C)(C)C)c3)nc2c(C)c1C [Example 201, N-(5-(6-ethoxy-7,8-dimethylimidazo[1,2-b]pyridazin-2-yl)-2-(trifluoromethyl)phenyl)pivalamide]		402 nM			869 nM		
CC(C)(C)C(=O)Nc1cc(-c2cn3nc(N4CCCC(O)C4)ccc3n2)ccc1C(F)(F)F (stereo not drawn) [Example 471, N-(5-(6-(3-hydroxypiperidin-1-yl)imidazo[1,2-b]pyridazin-2-yl)-2-(trifluoromethyl)phenyl)pivalamide]					445 nM	151 nM	
COc1ccc2nc(-c3ccc(C)c(NC(=O)c4ccccc4C(F)(F)F)c3)cn2n1 [Example 99, N-(5-(6-methoxyimidazo[1,2-b]pyridazin-2-yl)-2-methylphenyl)-2-(trifluoromethyl)benzamide]		> 10000 nM			3690 nM		
Fc1ccc(CN2CCN(c3ccc4nc(-c5ccc(F)cc5)c(C5CC5)n4n3)CC2)cc1 [Example 167, 3-cyclopropyl-6-(4-(4-fluorobenzyl)piperazin-1-yl)-2-(4-fluorophenyl)imidazo[1,2-b]pyridazine]		2270 nM			> 10000 nM		
CCOC(=O)COc1cccc(-c2ccc3nc(-c4ccc(C)c(NC(=O)C(C)(C)C)c4)cn3n2)c1C(F)(F)F [Example 410, ethyl 2-(3-(2-(4-methyl-3-pivalamidophenyl)imidazo[1,2-b]pyridazin-6-yl)-2-(trifluoromethyl)phenoxy)acetate]	300 to 3000 nM	121 nM	< 300 nM	300 to 3000 nM	403 nM		
Cc1ccc(-c2cn3nc(-c4cccc(C=CC(=O)NO)c4)ccc3n2)cc1NC(=O)C(C)(C)C [compound 559]		322 nM			604 nM		

Second part, the compound after the results:

IC50 [1, 3]	IC50 [1, 4]	IC50 [1, 5]	IC50 [2, 6]	IC50 [2, 7]	IC50 [1, 8]	IC50 ([2]; 10T1/2/Smo#3 cells, measured by ALP activity, read-out: ALP (IC50, inhibition of Hedgehog pathway activation))	SMILES
				194 nM	308 nM		CC(C)(C)C(=O)Nc1cc(-c2cn3nc(N4CCC(O)C4)ccc3n2)ccc1C(F)(F)F (stereo not drawn) [Example 337, N-(5-(6-(3-hydroxypyrrolidin-1-yl)imidazo[1,2-b]pyridazin-2-yl)-2-(trifluoromethyl)phenyl)pivalamide]
	279 nM			196 nM			Cc1ccc(-c2ccc3nc(-c4ccc(C(F)(F)F)c(NC(=O)C(C)(C)C)c4)cn3n2)c(F)c1 [Example 205, N-(5-(6-(2-fluoro-4-methylphenyl)imidazo[1,2-b]pyridazin-2-yl)-2-(trifluoromethyl)phenyl)pivalamide]
	65 nM			28 nM			CN(C)[C@@H]1CCN(c2ccc3nc(-c4ccc(C(F)(F)F)c(NC(=O)C(C)(C)C)c4)cn3n2)C1 [Example 470, (R)-N-(5-(6-(3-(dimethylamino)pyrrolidin-1-yl)imidazo[1,2-b]pyridazin-2-yl)-2-(trifluoromethyl)phenyl)pivalamide]
	10 nM			80 nM			CC1(C(=O)Nc2cc(-c3cn4nc(-c5cccnc5C(F)(F)F)ccc4n3)ccc2Cl)CC1 [Example 653, N-(2-chloro-5-(6-(2-(trifluoromethyl)pyridin-3-yl)imidazo[1,2-b]pyridazin-2-yl)phenyl)-1-methylcyclopropanecarboxamide]
300 to 3000 nM	320 nM	< 300 nM	< 300 nM	326 nM			CCc1ccc(-c2cn3nc(-c4ccccc4F)ccc3n2)cc1NC(=O)C(C)(C)C [Example 295, N-(2-ethyl-5-(6-(2-fluorophenyl)imidazo[1,2-b]pyridazin-2-yl)phenyl)pivalamide]
	76 nM			34 nM			Cc1ccc(-c2nc3ccc(-c4cccnc4C(F)(F)F)nn3c2Cl)cc1NC(=O)C(C)(C)C [Example 641, N-(5-(3-chloro-6-(2-(trifluoromethyl)pyridin-3-yl)imidazo[1,2-b]pyridazin-2-yl)-2-methylphenyl)pivalamide]
	74 nM			56 nM			Cc1ccc(-c2nc3ccc(-c4cccnc4C(F)(F)F)nn3c2C)cc1NC(=O)C(C)(C)C [Example 353, N-(2-methyl-5-(3-methyl-6-(2-(trifluoromethyl)pyridin-3-yl)imidazo[1,2-b]pyridazin-2-yl)phenyl)pivalamide]
	219 nM			298 nM			Cc1ccc(-c2cn3nc(-c4ccc(C(N)=NO)cc4F)ccc3n2)cc1NC(=O)C(C)(C)C [compound 567]

Reference: US8871767B2, “2-arylimidazo[1,2-B]pyridazine, 2-phenylimidazo[1,2-A]pyridine, and 2-phenylimidazo[1,2-A]pyrazine derivatives” (Hengrui (USA) Ltd., priority 2010, dated 2014)
